According to PMC4443670, “The C-terminal region of the motor protein MCAK controls its structure and activity through a conformational switch” (eLife, 2015):
Entries after “also recorded” stand apart in the source; their conditions may differ. Ends that are not written are not given here.

Tests used:
[1] = tested on: MCAK motor domain (His-M, His-NM); experiment: Resin-based (glutathione agarose) GST pull-down binding assay; design: species or system human; details: GST-CT constructs on glutathione agarose beads; purified His-M / His-NM; Coomassie-stained gel
Excerpt: Kinesin-1 is regulated through an auto-inhibitory mechanism whereby one C-terminal tail binds at the interface of the two motors, such that it creates a second point of attachment in addition to the coiled coil region. This limits the head movement of one kinesin with respect to the other ([Stock et al., 1999]; [Hackney and Stock, 2000]; [Kaan et al., 2011]). We sought to test whether the C-terminal tail domain of MCAK, which has been proposed to regulate MCAK activity ([Moore and Wordeman, 2004]), was sufficient to interact with the motor domain. To do this, we expressed the N-terminal and motor region (residues 1–583, termed NM) or the motor region of MCAK along with the neck linker region (residues 181–583, termed M) as His-tagged proteins, and the C-terminal MCAK tail (residues 700–725, termed CT domain) as a GST fusion protein ([Moore and Wordeman, 2004]; [Hertzer et al., 2006]) (Figure 1A). […] We cannot however exclude a very tight interaction between two CT domains. […] Together, these experiments reveal that the MCAK CT domain interacts with its catalytic domain in solution.
Figure 4. Sequence requirement for the formation of a motor-CT tail complex. (A) Sequence alignment of the conserved CT domain of MCAK for various species alongside the Drosophila kinesin-13 Klp10A and human Kif2a. The conserved residues are highlighted in red. The three amino acids that are critical for binding to the motor domain are marked with a green star. (B) Sequence alignment of the C terminus of human Kif2a, Kif2b, and MCAK/Kif2c. Amino acid numbering is relative to the Kif2a sequence. The MCAK CT domain binding to the motor domain is boxed in green. The sequences were aligned using the program T-coffee (EBI) and formatted with ESPRIPT ([Gouet et al., 1999]). (C) Coomassie-stained gel showing a resin-based binding assay using glutathione agarose beads for purified His-M, binding to the GST-CT and GST-CT point mutants. (D) Size-exclusion chromatography elution profile of the motor domain alone (red dashes), motor incubated with the CT, CTS715E, CTE711A, E712A domains (cyan, green dashes, and purple, respectively). Bottom, coomassie-stained gel showing the size-exclusion chromatography elution of the motor incubated with the CTS715E and CTE711A, E712A domains (green and purple, respectively). DOI: http://dx.doi.org/10.7554/eLife.06421.008
Protein expression was induced by addition of 0.5 mM IPTG to BL21(DE3) Codon plus cells transformed with respective constructs at OD600 of 0.7–0.8 for 16 hr at 18°C. Cells were lysed by sonication in lysis buffer (50 mM Hepes, pH 7.4, 200 mM NaCl, 1 mM MgCl2, 1 mM PMSF, 1 mg/ml DNaseI, 2 mg/ml lysozyme, 10 mM Imidazole) and clarified at 20,000 rpm for 1 hr at 4°C. His-tagged and GST-tagged proteins were subsequently purified using Ni-NTA–agarose beads and glutathione-sepharose beads, respectively (GE Healthcare Life Sciences, UK)) according to the manufacturer's guidelines. MCAK constructs containing the motor domain were eluted with elution buffer (50 mM Hepes, pH 7.4, 200 mM NaCl, 1 mM MgCl2, 1 mM ATP, and 300 mM imidazole). Cleavage of the GST tag was performed using the GST-3C protease overnight at 4°C. Proteins were further purified using gel filtration chromatography pre-equilibrated in gel filtration buffer (For full-length MCAK: 100 mM HEPES, pH 7.3, 200 mM NaCl, 200 mM KCl, 1 mM DTT, 1 mM MgCl2, 1 mM Na-EGTA, 1 mM ATP; for the motor domain constructs: 50 mM HEPES, pH 7.2, 150 mM NaCl, 1 mM DTT, 1 mM MgCl2, 1 mM Na-EGTA, 1 mM ATP; for CT domain constructs: 50 mM HEPES, pH 7.2, 150 mM NaCl, 1 mM DTT, 1 mM MgCl2, 1 mM Na-EGTA). Analytical gel filtration chromatography was performed using either a Superdex 75 or a Superose 6 10/300 GL column (GE Healthcare, UK). To purify the CT domain alone, we cleaved GST and CT after gel filtration and a concentration step, and performed a glutathione affinity-purification third step to remove the GST and collect the CT domain. […]

[2] = target: T1, MCAK motor domain (Homo sapiens, UniProt Q99661); experiment: Analytical size-exclusion chromatography (motor-CT complex formation); format: binding; details: Superdex 75 or Superose 6 10/300 GL; Coomassie-stained gel of fractions
T1 construct: His-MCAK (183–583, M) and His-MCAK (1–583, NM) were subcloned in pET3aTr vector; made in house; host or cells: E. coli BL21(DE3) Codon plus
T1 sequence (Q99661 183-583): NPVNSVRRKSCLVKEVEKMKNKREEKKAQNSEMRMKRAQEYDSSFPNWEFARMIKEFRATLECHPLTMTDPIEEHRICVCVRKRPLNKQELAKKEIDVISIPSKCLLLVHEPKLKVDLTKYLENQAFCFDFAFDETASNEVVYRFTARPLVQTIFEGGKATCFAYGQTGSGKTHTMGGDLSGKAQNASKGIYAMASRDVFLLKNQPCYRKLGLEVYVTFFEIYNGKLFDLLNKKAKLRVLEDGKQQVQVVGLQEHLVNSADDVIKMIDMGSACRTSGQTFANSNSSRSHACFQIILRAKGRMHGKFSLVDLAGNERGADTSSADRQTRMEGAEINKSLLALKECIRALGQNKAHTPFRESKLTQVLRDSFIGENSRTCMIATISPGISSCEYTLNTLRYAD
Excerpt: Full-length MCAK is a dimer in solution ([Maney et al., 2001]). Therefore, we sought to test whether the CT domain interacts with one or two motor domains. To define the stoichiometry of this interaction, we subjected the complex to analytical size-exclusion chromatography. The motor domain alone behaves as a monomer and eluted with an apparent size of ∼45 kDa. […] Using SDS-PAGE analysis, we confirmed that the shift to a larger complex was due to the interaction of the motor domain with the CT domain (Figure 1C, bottom). […] The predicted masses for complexes of one and two CT domains bound to two motor domains are ∼94.2 and 97.7 kDa, respectively. […] Since the CT domain is unlikely to dimerize alone (Figure 1B), we conclude that the MCAK CT domain induces the dimerization of the motor domains cooperatively.
Protein expression was induced by addition of 0.5 mM IPTG to BL21(DE3) Codon plus cells transformed with respective constructs at OD600 of 0.7–0.8 for 16 hr at 18°C. Cells were lysed by sonication in lysis buffer (50 mM Hepes, pH 7.4, 200 mM NaCl, 1 mM MgCl2, 1 mM PMSF, 1 mg/ml DNaseI, 2 mg/ml lysozyme, 10 mM Imidazole) and clarified at 20,000 rpm for 1 hr at 4°C. His-tagged and GST-tagged proteins were subsequently purified using Ni-NTA–agarose beads and glutathione-sepharose beads, respectively (GE Healthcare Life Sciences, UK)) according to the manufacturer's guidelines. MCAK constructs containing the motor domain were eluted with elution buffer (50 mM Hepes, pH 7.4, 200 mM NaCl, 1 mM MgCl2, 1 mM ATP, and 300 mM imidazole). Cleavage of the GST tag was performed using the GST-3C protease overnight at 4°C. […] Protein concentrations were determined with a combination of Bradford protein assays and densitometry of Coomassie-stained gels relative to a BSA standard. […]

[3] = tested on: MCAK motor domain (Cys287); experiment: Covalent (disulphide) attachment of the CT domain to the motor domain; format: binding, human
Method: The GST-CTE712C and CTE712C domains were cross-linked to the motor domain by incubating them with the motor domain in a buffer containing 100 mM HEPES, pH 7.4, 150 mM NaCl but lacking DTT for 1 hr at 4°C. As a negative control the motor domain and the CTE712C domain were incubated in the identical buffer, supplemented with 5 mM DTT.

[4] = tested on: taxol-stabilized microtubules; experiment: Microtubule cosedimentation assay, untreated microtubules; format: binding; details: 100 nM full-length MCAKS715E, 2 μM taxol-stabilized microtubules, increasing free CT or CTS715E; repeated three times
Method: Full-length MCAK complex was diluted in S buffer (50 mM NaCl, 20 mM Hepes pH 7.0) to 50 nM, in absence of nucleotide to prevent MCAK-dependent microtubule depolymerisation. To assemble an MCAK motor-CT domain complex, 50 nM of the motor domain and 100 nM of the CT domain were used. Microtubule binding assays were performed as described ([Cheeseman et al., 2006]) using equal volumes of taxol-stabilized microtubules in BRB80 and MCAK in S buffer. MCAK was quantified using anti-MCAK antibody against the C terminus of MCAK (709[…]720), generated by GL Biochem (Shangai) Ltd (China) or anti-His antibody to probe for the motor domain alone (GE Healthcare Lifesciences, UK). The data from at least three independent experiments were fitted to a modified Hill equation to determine the apparent Kd.

Substance	binding to the motor domain of MCAK [1]	further results
GST-CTE712C: cleavable GST fusion of CTE712C domain (VIKALRLAMQLECQASRQISSKKRPQ; also: GST fusion partner not in chain)	–	binding to / co-migration with motor domain by gel filtration [2]: eluted as a single peak, earlier than the peak for the motor alone; efficiency of disulphide bridge formation with motor domain ([3]; absence of DTT, Coomassie-stained gel): ~50%; formation of covalent complex with motor ([3]; oxidizing conditions (without DTT), 100 mM HEPES pH 7.4, 150 mM NaCl, 1 hr at 4°C): formed a covalent complex
CTE711A, E712A: CT domain point mutant E711A, E712A (VIKALRLAMQLAAQASRQISSKKRPQ; not fully specified)	no longer bound to the motor domain of MCAK	–
GST-CT: C-terminal MCAK tail (residues 700–725) as a GST fusion protein (VIKALRLAMQLEEQASRQISSKKRPQ; also: GST fusion partner not in chain)	bound to both the NM and M domains of MCAK as a stable complex; also recorded: bound to the motor domain	–
GST-CTS715E: GST fusion of CT domain S715E (VIKALRLAMQLEEQAERQISSKKRPQ; also: GST fusion partner not in chain)	did not interact with the motor domain	–
CTS715E: CT domain point mutant S715E (VIKALRLAMQLEEQAERQISSKKRPQ; left off: GST, end not stated, cleaved)	–	binding to / co-migration with motor domain by gel filtration [2]: did not co-migrate; effect of free CT domain on MCAKS715E binding to microtubules [4]: did not interfere with MCAKS715E binding to microtubules
GST-CTS715A: GST fusion of CT domain S715A (VIKALRLAMQLEEQAARQISSKKRPQ; also: GST fusion partner not in chain)	bound to the motor domain	–

The next lines start with results.

binding to the motor domain of MCAK [1]	Substance	further results
bound robustly	CTI718A: CT domain point mutant I718A (VIKALRLAMQLEEQASRQASSKKRPQ; not fully specified)	–
bound robustly	CTR716A: CT domain point mutant R716A (VIKALRLAMQLEEQASAQISSKKRPQ; not fully specified)	–
